From patent US8697739B2, “Bicyclic acetyl-CoA carboxylase inhibitors and uses thereof” (Novartis AG, priority 2010, dated 2014)

Biological target: T1, human acetyl-CoA carboxylase 2 (ACC2) (Homo sapiens, UniProt O00763)
T1 construct: The cDNA encoding amino acids 144 to 2458 of human acetyl-CoA carboxylase 2; made in house; host or cells: Sf9 insect cells (baculovirus, pFastBac1)
Assay: Acetyl-CoA carboxylase enzyme assay (malonyl-CoA formation by LC/MS/MS)
Assay type: biochemical
Settings: recombinant human ACC2 (aa 144-2458); read-out: IC50 ACC2
Outline: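 Malonyl-CoA formation was read by LC/MS/MS MRM against a [13C3]-malonyl-CoA internal standard, after acetic acid quench. The enzyme was baculovirus/Sf9-expressed human ACC2 residues 144–2458, given 15 minutes room-temperature compound preincubation in HEPES pH 7.5 buffer with MgCl2, citrate and DTT. Substrate solution held 50 μM acetyl-CoA, 120 μM ATP and 2 mM KHCO3.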

T1 sequence (O00763 144-2458): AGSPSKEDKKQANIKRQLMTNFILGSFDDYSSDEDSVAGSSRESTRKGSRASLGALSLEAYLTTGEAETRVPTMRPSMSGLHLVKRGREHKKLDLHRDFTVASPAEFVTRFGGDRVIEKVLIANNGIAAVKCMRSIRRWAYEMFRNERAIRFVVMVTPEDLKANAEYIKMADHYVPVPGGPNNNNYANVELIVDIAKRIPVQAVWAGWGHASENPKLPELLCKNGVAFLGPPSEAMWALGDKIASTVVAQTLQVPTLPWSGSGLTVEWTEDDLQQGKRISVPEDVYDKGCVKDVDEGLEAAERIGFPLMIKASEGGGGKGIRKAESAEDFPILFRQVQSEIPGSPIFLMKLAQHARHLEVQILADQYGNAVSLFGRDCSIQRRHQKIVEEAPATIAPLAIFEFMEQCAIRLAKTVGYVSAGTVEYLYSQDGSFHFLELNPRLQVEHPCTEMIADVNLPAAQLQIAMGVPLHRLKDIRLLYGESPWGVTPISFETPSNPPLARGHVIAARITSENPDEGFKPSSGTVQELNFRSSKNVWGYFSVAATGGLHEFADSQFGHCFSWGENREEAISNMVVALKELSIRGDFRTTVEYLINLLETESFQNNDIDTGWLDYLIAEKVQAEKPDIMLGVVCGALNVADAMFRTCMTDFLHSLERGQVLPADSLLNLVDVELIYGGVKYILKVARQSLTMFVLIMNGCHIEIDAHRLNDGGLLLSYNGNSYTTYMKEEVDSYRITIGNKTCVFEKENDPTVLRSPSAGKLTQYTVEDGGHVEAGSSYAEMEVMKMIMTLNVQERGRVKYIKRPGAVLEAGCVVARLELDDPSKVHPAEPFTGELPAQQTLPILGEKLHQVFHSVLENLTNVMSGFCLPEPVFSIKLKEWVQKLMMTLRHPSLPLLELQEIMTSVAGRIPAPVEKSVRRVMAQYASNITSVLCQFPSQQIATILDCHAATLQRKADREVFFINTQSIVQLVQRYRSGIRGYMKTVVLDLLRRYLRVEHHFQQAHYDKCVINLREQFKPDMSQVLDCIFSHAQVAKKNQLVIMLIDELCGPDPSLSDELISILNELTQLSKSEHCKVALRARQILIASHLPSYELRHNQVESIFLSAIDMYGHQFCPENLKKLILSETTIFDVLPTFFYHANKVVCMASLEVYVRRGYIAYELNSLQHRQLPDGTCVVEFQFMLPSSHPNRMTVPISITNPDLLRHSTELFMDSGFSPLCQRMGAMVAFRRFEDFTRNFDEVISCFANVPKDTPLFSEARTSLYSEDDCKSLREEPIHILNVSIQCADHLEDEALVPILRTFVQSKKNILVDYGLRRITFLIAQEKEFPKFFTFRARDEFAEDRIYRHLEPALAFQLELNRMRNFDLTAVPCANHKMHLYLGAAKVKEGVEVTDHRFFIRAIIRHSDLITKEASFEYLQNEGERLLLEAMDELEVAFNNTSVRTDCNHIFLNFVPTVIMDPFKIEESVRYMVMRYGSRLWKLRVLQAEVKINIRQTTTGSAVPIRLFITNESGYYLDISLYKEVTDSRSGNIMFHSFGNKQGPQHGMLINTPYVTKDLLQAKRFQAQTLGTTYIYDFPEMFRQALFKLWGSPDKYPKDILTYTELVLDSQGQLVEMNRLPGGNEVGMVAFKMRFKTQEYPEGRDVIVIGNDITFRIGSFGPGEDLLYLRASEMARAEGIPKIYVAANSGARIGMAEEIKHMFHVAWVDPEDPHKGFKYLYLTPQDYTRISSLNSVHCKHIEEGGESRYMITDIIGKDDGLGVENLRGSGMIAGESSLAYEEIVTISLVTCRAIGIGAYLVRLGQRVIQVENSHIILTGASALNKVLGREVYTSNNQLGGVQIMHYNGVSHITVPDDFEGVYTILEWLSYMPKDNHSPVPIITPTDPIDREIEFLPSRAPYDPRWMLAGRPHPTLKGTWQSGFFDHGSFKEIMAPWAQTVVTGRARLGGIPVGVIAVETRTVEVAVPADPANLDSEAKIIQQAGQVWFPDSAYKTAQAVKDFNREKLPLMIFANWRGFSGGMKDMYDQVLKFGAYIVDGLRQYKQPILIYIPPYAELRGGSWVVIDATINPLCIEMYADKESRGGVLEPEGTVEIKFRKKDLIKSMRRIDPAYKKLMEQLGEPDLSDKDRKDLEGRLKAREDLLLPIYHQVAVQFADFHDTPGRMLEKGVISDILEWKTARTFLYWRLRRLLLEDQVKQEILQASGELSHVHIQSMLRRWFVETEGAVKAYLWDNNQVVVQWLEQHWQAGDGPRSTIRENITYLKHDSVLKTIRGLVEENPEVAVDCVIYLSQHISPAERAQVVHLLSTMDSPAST

| Compound | IC50 [nM] |
| --- | --- |
| C[C@H]1CCCCN1C(=O)[C@H]1CC[C@H](NS(=O)(=O)c2ccc3c(Cl)c(-c4ccc(CCC(=O)O)cc4)n(C)c3c2)CC1 [Example 416, 3-(4-(3-chloro-1-methyl-6-(N-((1S,4r)-4-((S)-2-methylpiperidine-1-carbonyl)cyclohexyl)sulfamoyl)-1H-indol-2-yl)phenyl)propanoic acid] | < 10 |
| C[C@@H]1CN(C(=O)[C@H]2CC[C@H](NS(=O)(=O)c3ccc4cc(-c5ccccc5)n(C)c4c3)CC2)C[C@H](C)O1 [Example 419, N-((1R,4r)-4-((2S,6R)-2,6-dimethylmorpholine-4-carbonyl)cyclohexyl)-1-methyl-2-phenyl-1H-indole-6-sulfonamide] | 35 |
| COC[C@@H](NC(=O)[C@H]1CC[C@H](NS(=O)(=O)c2ccc3cc(-c4ccccc4)n(C)c3c2)CC1)c1ccccc1 [Example 423, (1r,4S)-N-((S)-2-methoxy-1-phenylethyl)-4-(1-methyl-2-phenyl-1H-indole-6-sulfonamido)cyclohexanecarboxamide] | 40 |
| CCC1(CC)CN(C(=O)[C@H]2CC[C@H](NS(=O)(=O)c3ccc4cc(-c5ccccc5)n(C)c4c3)CC2)CCO1 [Example 424, N-((1r,4r)-4-(2,2-diethylmorpholine-4-carbonyl)cyclohexyl)-1-methyl-2-phenyl-1H-indole-6-sulfonamide] | 50 |
| C[C@H]1COCCN1C(=O)[C@H]1CC[C@H](NS(=O)(=O)c2ccc3cc(-c4ccccc4)n(C)c3c2)CC1 [Example 425, 1-methyl-N-((1S,4r)-4-((S)-3-methylmorpholine-4-carbonyl)cyclohexyl)-2-phenyl-1H-indole-6-sulfonamide] | 30 |

Results, then the compound that gave them:

| IC50 [nM] | Compound |
| --- | --- |
| 80 | C[C@H]1COCCN1C(=O)[C@H]1CC[C@H](NS(=O)(=O)c2ccc3c(C#N)c(C4CC4)n(C)c3c2)CC1 [Example 414, 3-cyano-2-cyclopropyl-1-methyl-N-((1S,4r)-4-((S)-3-methylmorpholine-4-carbonyl)cyclohexyl)-1H-indole-6-sulfonamide] |
| < 10 | C[C@H]1CCCCN1C(=O)[C@H]1CC[C@H](NS(=O)(=O)c2ccc3c(C#N)c(-c4ccc(CCC(=O)O)cc4)n(C)c3c2)CC1 [Example 415, 3-(4-(3-cyano-1-methyl-6-(N-((1S,4r)-4-((S)-2-methylpiperidine-1-carbonyl)cyclohexyl)sulfamoyl)-1H-indol-2-yl)phenyl)propanoic acid] |
| 80 | C[C@@H]1CN(C(=O)[C@H]2CC[C@H](NS(=O)(=O)c3ccc4c(C#N)c(C5CC5)n(C)c4c3)CC2)C[C@H](C)O1 [Example 417, 3-cyano-2-cyclopropyl-N-((1R,4r)-4-((2S,6R)-2,6-dimethylmorpholine-4-carbonyl)cyclohexyl)-1-methyl-1H-indole-6-sulfonamide] |
| 65 | COC[C@H]1CCCN1C(=O)[C@H]1CC[C@H](NS(=O)(=O)c2ccc3c(C#N)c(C4CC4)n(C)c3c2)CC1 [Example 418, 3-cyano-2-cyclopropyl-N-((1R,4r)-4-((R)-2-(methoxymethyl)pyrrolidine-1-carbonyl)cyclohexyl)-1-methyl-1H-indole-6-sulfonamide] |
| 720 | CCOC(=O)[C@H]1CCCN1C(=O)[C@H]1CC[C@H](NS(=O)(=O)c2ccc3cc(-c4ccccc4)n(C)c3c2)CC1 [Example 420, (R)-ethyl 1-((1r,4R)-4-(1-methyl-2-phenyl-1H-indole-6-sulfonamido)cyclohexanecarbonyl)pyrrolidine-2-carboxylate] |
| 50 | C[C@H]1COCCN1C(=O)[C@H]1CC[C@H](NS(=O)(=O)c2ccc3c(C#N)c(C4CC4)n(C)c3c2)CC1 [Example 421, 3-cyano-2-cyclopropyl-1-methyl-N-((1S,4r)-4-((S)-3-methylmorpholine-4-carbonyl)cyclohexyl)-1H-indole-6-sulfonamide] |
| 285 | C[C@H]1COCCN1C(=O)[C@H]1CC[C@H](NS(=O)(=O)c2ccc3cc(C4CC4)n(C)c3c2)CC1 [Example 422, 2-cyclopropyl-1-methyl-N-((1S,4r)-4-((S)-3-methylmorpholine-4-carbonyl)cyclohexyl)-1H-indole-6-sulfonamide] |
